Data published in US5204352A, “Compounds exhibiting anti-parasitic activity and a method for their use” (The United States of America as represented by the …, priority 1987, dated 1993).
Where “and” joins values, the source holds several entries; their conditions need not be identical. Equal values may be shown once.

System: Trypanosoma rhodesiense
Experiment: In vivo trypanocidal activity in infected mice (protocol based on Rane et al.)
Set-up: Activity at dosage, value in parentheses (increase in survival): unit not given here
Method: The compounds of the present invention were evaluated biologically in vivo with groups of 5 mice at various dose levels. Unless otherwise indicated, the data are for subcutaneous administration. Dose levels marked with an asterisk are for peritoneal administration in a HEC+T medium. In addition, Table 2 present results of peritoneal administration with substituted quanylhydrazones. The biological evaluation was done according to a standard protocol based on the method described by Rane et al., Amer. J. Trop. Med Hyg. 25:395 (1976). […]

[1] = 106* mg/kg, peritoneal in HEC+T medium (Table I)
[2] = 424* mg/kg, peritoneal in HEC+T medium (Table I)

Row | Compound | Increase in survival (53 mg/kg, subcutaneous) [days] | Trypanocidal activity, cures (53 mg/kg, subcutaneous) | Increase in survival (106 mg/kg, subcutaneous) [days] | Trypanocidal activity, cures (212 mg/kg, subcutaneous) | Trypanocidal activity, cures (106 mg/kg, subcutaneous) | Increase in survival (212 mg/kg, subcutaneous) [days] | Increase in survival (424 mg/kg, subcutaneous) [days] | Trypanocidal activity, cures (424 mg/kg, subcutaneous) | further results
1 | CC(=O)Nc1ccc(-c2cn3ccccc3[n+]2C)cc1 [BJ36718] | 8.0 | 4/5 | 4.4 | 3/5 and 4/5 |  |  |  |  | Increase in survival [1]: 7.0 days; Trypanocidal activity, cures [1]: 7/10; Increase in survival [2]: 11.0 days; Trypanocidal activity, cures [2]: 8/10
2 | CC(=O)Nc1ccc(-c2cn3c([n+]2C)CCCC3)cc1 [BJ51911] | 6.4 |  | 7.4 |  | 3/10 |  |  |  | Increase in survival (26.5 mg/kg, subcutaneous): 1.2 days; Trypanocidal activity, cures (26.5 mg/kg, subcutaneous): 1/10
3 | C=CC[n+]1c(-c2ccc(NC(C)=O)cc2)cn2ccccc21 [BJ58296] |  |  |  |  |  |  |  |  | Increase in survival (26.5 mg/kg, subcutaneous): 5.0 days; Trypanocidal activity, cures (26.5 mg/kg, subcutaneous): 7/10
4 | CC(=O)Nc1ccc(-c2cn3ccc4ccccc4c3[n+]2C)cc1 [BJ83235] | 1.7 | 1/5 |  | 4/5 |  | 2.9 |  |  | 
5 | CC(=O)Nc1ccc(-c2cn3c4ccccc4ccc3[n+]2C)cc1 [BJ83244] |  |  |  | 3/5 |  | 8.4 |  |  | 
6 | CC(=O)Nc1ccc(-c2cn3cc(I)ccc3[n+]2C)cc1 [BJ83306] |  |  | 2.3 | 1/5 | 3/10 | 3.9 | 6.5 | 4/10 | 
7 | CC(=O)Nc1ccc(-c2cn3ccccc3[n+]2C)cc1 [BJ83315] |  |  | 3.7 | 3/5 |  | 6.4 | 2.9 | 9/10 | 
8 | CC(=O)Nc1ccc(-c2cn3cc(C)ccc3[n+]2C)cc1 [BJ84938] |  |  | 1.3 | 1/5 | 1/10 | 5.9 | 8.5 | 7/10 | 
9 | C[n+]1c(-c2ccc(C(N)=NO)cc2)cn2ccccc21 [BJ84974] |  | 5/5 | 9.9 | 5/5 | 9/10 |  |  |  | Increase in survival (13.3 mg/kg, subcutaneous): 3.1 days; Increase in survival (26.5 mg/kg, subcutaneous): 1.6 days; Trypanocidal activity, cures (26.5 mg/kg, subcutaneous): 2/10
10 | CC(=O)Nc1ccc(-c2cn3c(C)cc(C)cc3[n+]2C)cc1 [BJ90703] |  |  | 2.9 |  | 4/5 |  | 9.4 | 3/5 | Increase in survival (26 mg/kg, subcutaneous): 8.9 days; Trypanocidal activity, cures (26 mg/kg, subcutaneous): 1/5; Increase in survival [2]: 3.4 days; Trypanocidal activity, cures [2]: 1/5
11 | C[n+]1c(-c2ccc(C=NO)cc2)cn2ccccc21 [BJ90712] |  |  | 4.2 |  | 2/5 |  |  |  | 
12 | C[n+]1c(-c2ccc(C=NNC(N)=S)cc2)cn2ccccc21 [BJ90721] | 7.8 | 1/5 | 7.5 | 4/5 | 3/5 | 18.0 |  | 5/5 | Increase in survival (26 mg/kg, subcutaneous): 4.4 days; Increase in survival [2]: 1.9 days; Trypanocidal activity, cures [2]: 1/10
13 | C[n+]1c(-c2ccc(C=NNC(N)=O)cc2)cn2ccccc21 [BJ90730] |  |  | 10.9 |  | 4/5 |  |  |  | Increase in survival (26 mg/kg, subcutaneous): 7.7 days; Trypanocidal activity, cures (26 mg/kg, subcutaneous): 1/5; Increase in survival [1]: 1.9 days; Trypanocidal activity, cures [1]: 1/10; Increase in survival [2]: 4.8 days; Trypanocidal activity, cures [2]: 3/10
14 | C[n+]1c(-c2ccc(C=NNC(=N)N)cc2)cn2ccccc21 [BJ90749] |  |  |  |  |  |  |  |  | Increase in survival (0.21 mg/kg, subcutaneous): 2.5 days; Trypanocidal activity, cures (0.21 mg/kg, subcutaneous): 1/5; Increase in survival (0.42 mg/kg, subcutaneous): 5.4 days; Trypanocidal activity, cures (0.42 mg/kg, subcutaneous): 2/10; Increase in survival (0.83 mg/kg, subcutaneous): 6.2 days; Trypanocidal activity, cures (0.83 mg/kg, subcutaneous): 8/10; Trypanocidal activity, cures (1.6 mg/kg, subcutaneous): 10/10; Trypanocidal activity, cures (3.3 mg/kg, subcutaneous): 5/5; Trypanocidal activity, cures (6.6 mg/kg, subcutaneous): 5/5; Activity at dosage, value in parentheses (increase in survival) (13 mg/kg, peritoneal (Table 2)): 4.0; Trypanocidal activity, cures (13.3 mg/kg, subcutaneous): 10/10
15 | COC(=O)c1ccc2n(c1)cc(-c1ccc(NC(C)=O)cc1)[n+]2C [BJ90758] |  |  | 4.2 |  |  |  | 4.2 | 2/10 | 
16 | C[n+]1c(-c2ccc(C=NNc3ncn[nH]3)cc2)cn2ccsc21 [BK2403S] | 12.5 | 3/5 | 7.7 | 3/5 | 7/10 | 5.0 |  |  | Increase in survival (6.65 mg/kg, subcutaneous): 5.0 days; Trypanocidal activity, cures (6.65 mg/kg, subcutaneous): 4/5; Increase in survival (13.3 mg/kg, subcutaneous): 5.0 days; Trypanocidal activity, cures (13.3 mg/kg, subcutaneous): 6/10; Increase in survival (26.5 mg/kg, subcutaneous): 7.3 days; Trypanocidal activity, cures (26.5 mg/kg, subcutaneous): 12/15
